Assay results from PubChem BioAssay AID248 (DTP/NCI, 2004).
“And” between values parts separate entries of the source, which are not always exact repeats. Equal values may be shown once. Toxic doses and inconclusive results are not listed. Rule as the data show it: active = T/C of 150% or more; inactive = T/C below 125%.

Tested on: L1210 leukemia ip in BDF1 mice, survival T/C
Experiment: NCI In Vivo Anticancer Drug Screen. Data for tumor model L1210 Leukemia (intraperitoneal) in B6D2F1 (BDF1) mice
Conditions: endpoint: mean survival time, higher = longer survival
How it was run: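 Transplanted-tumor mice were given test agent; controls received vehicle only. Survival readings from the two groups were divided (treated over control).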

[1] = dose: 25.0 mg/kg/injection, schedule: Q01DX009 (ip), vehicle: saline with Tween-80
[2] = dose: 100.0 mg/kg/injection, schedule: Q04DX003 (ip), vehicle: saline with Tween-80
[3] = dose: 200.0 mg/kg/injection, schedule: Q04DX003 (ip), vehicle: saline with Tween-80
[4] = dose: 400.0 mg/kg/injection, schedule: Q04DX003 (ip), vehicle: saline with Tween-80
[5] = dose: 100.0 mg/kg/injection, schedule: Q01DX009 (ip), vehicle: saline with Tween-80
[6] = dose: 100.0 mg/kg/injection, schedule: Q01DX001 (ip), vehicle: carboxymethylcellulose (CMC)
[7] = dose: 200.0 mg/kg/injection, schedule: Q01DX009 (ip), vehicle: saline with Tween-80
[8] = dose: 400.0 mg/kg/injection, schedule: Q01DX009 (ip), vehicle: saline with Tween-80

Measured: T/C

[Cl][Fe]([Cl])[Cl]
inactive: dose: 12.5 mg/kg/injection, schedule: Q01DX009 (ip), vehicle: saline with Tween-80 98 % of control | [1] 94 % of control | dose: 75.0 mg/kg/injection, schedule: Q01DX001 (ip), vehicle: saline 96 % of control | [2] 93 % of control | dose: 150.0 mg/kg/injection, schedule: Q01DX001 (ip), vehicle: saline 93 % of control | [3] 94 % of control | dose: 300.0 mg/kg/injection, schedule: Q01DX001 (ip), vehicle: saline 98 % of control | [4] 105 % of control

O=C(O)C1(NC2CCCCC2)CCCCC1
inactive: dose: 5.0 mg/kg/injection, schedule: Q01DX Z (ip), vehicle: methylcellulose (MC) 104 % of control | dose: 10.0 mg/kg/injection, schedule: Q01DX Z (ip), vehicle: methylcellulose (MC) 114 % of control | dose: 20.0 mg/kg/injection, schedule: Q01DX Z (ip), vehicle: methylcellulose (MC) 99 % of control | dose: 40.0 mg/kg/injection, schedule: Q01DX Z (ip), vehicle: methylcellulose (MC) 100 % of control | dose: 80.0 mg/kg/injection, schedule: Q01DX Z (ip), vehicle: methylcellulose (MC) 99 % of control

O=C(O)CCC(=O)Nc1ccc2c(c1)B(O)OC2
inactive: dose: 50.0 mg/kg/injection, schedule: Q04DX003 (ip), vehicle: Klucel (hydroxypropylcellulose) (HPC) 101 % of control | dose: 100.0 mg/kg/injection, schedule: Q04DX003 (ip), vehicle: Klucel (hydroxypropylcellulose) (HPC) 96 % of control and 90 % of control | dose: 200.0 mg/kg/injection, schedule: Q04DX003 (ip), vehicle: Klucel (hydroxypropylcellulose) (HPC) 96 % of control | dose: 400.0 mg/kg/injection, schedule: Q04DX003 (ip), vehicle: Klucel (hydroxypropylcellulose) (HPC) 88 % of control

CC(CN1CCN(C)CC1)CN1c2ccccc2Sc2ccc(C(F)(F)F)cc21 (configuration not stated)
inactive: dose: 3.12 mg/kg/injection, schedule: Q01DX009 (ip), vehicle: saline 101 % of control | dose: 6.25 mg/kg/injection, schedule: Q01DX009 (ip), vehicle: saline 106 % of control | dose: 12.5 mg/kg/injection, schedule: Q01DX009 (ip), vehicle: saline 113 % of control | [1] 111 % of control | dose: 25.0 mg/kg/injection, schedule: Q01DX009 (ip), vehicle: saline 117 % of control | dose: 25.0 mg/kg/injection, schedule: Q04DX003 (ip), vehicle: saline 101 % of control | dose: 50.0 mg/kg/injection, schedule: Q01DX009 (ip), vehicle: saline with Tween-80 111 % of control | dose: 50.0 mg/kg/injection, schedule: Q01DX009 (ip), vehicle: saline 98 % of control | dose: 50.0 mg/kg/injection, schedule: Q04DX003 (ip), vehicle: saline 113 % of control | [5] 96 % of control | [2] 107 % of control

O=C1NC(=S)S/C1=C/c1ccc(/C=C2/SC(=S)NC2=O)cc1
inactive: dose: 50.0 mg/kg/injection, schedule: Q01DX001 (ip), vehicle: carboxymethylcellulose (CMC) 92 % of control | [6] 94 % of control

Nc1cnnc(N)c1Cl
inactive: dose: 5.0 mg/kg/injection, schedule: Q01DX001 (ip), vehicle: saline 102 % of control | dose: 10.0 mg/kg/injection, schedule: Q01DX001 (ip), vehicle: saline 113 % of control | dose: 20.0 mg/kg/injection, schedule: Q01DX001 (ip), vehicle: saline 104 % of control | dose: 40.0 mg/kg/injection, schedule: Q01DX001 (ip), vehicle: saline 95 % of control

O=C(N/N=C/c1ccc2c(c1)CCC2)Nc1ccc([N+](=O)[O-])cc1[N+](=O)[O-]
inactive: dose: 100.0 mg/kg/injection, schedule: Q04DX003 (ip), vehicle: saline 91 % of control | dose: 200.0 mg/kg/injection, schedule: Q04DX003 (ip), vehicle: saline 98 % of control | dose: 400.0 mg/kg/injection, schedule: Q04DX003 (ip), vehicle: saline 101 % of control

CCOC(=O)c1c(C)[nH]c(C)cc1=O
inactive: dose: 100.0 mg/kg/injection, schedule: Q01DX001 (ip), vehicle: saline with Tween-80 95 % of control | [5] 98 % of control | dose: 200.0 mg/kg/injection, schedule: Q01DX001 (ip), vehicle: saline with Tween-80 95 % of control | [7] 102 % of control | dose: 400.0 mg/kg/injection, schedule: Q01DX001 (ip), vehicle: saline with Tween-80 90 % of control | [8] 95 % of control

O=C(O)C(Cl)(Br)C(Cl)c1ccccc1 (configuration not stated)
inactive: [5] 93 % of control | [7] 91 % of control | [8] 95 % of control

CCOC(COC(=O)c1ccccc1C(=O)O)c1ccccc1 (configuration not stated)
inactive: [2] 94 % of control | [3] 97 % of control | [4] 92 % of control

COc1ccc(OC)c(C2(O)C=C(C)C(=O)C=C2C)c1 (configuration not stated)
inactive: dose: 150.0 mg/kg/injection, schedule: Q01DX001 (ip), vehicle: Klucel (hydroxypropylcellulose) (HPC) 91 % of control | dose: 300.0 mg/kg/injection, schedule: Q01DX001 (ip), vehicle: Klucel (hydroxypropylcellulose) (HPC) 91 % of control

C=CC1=C(C)C(=O)N/C1=C\c1[nH]c(Cc2[nH]c(/C=C3/NC(=O)C(C(C)SC(C)=O)=C3C)cc2CCC(=O)O)c(CCC(=O)O)c1C (configuration not stated)
inactive: dose: 100.0 mg/kg/injection, schedule: Q04DX002 (ip), vehicle: Klucel (hydroxypropylcellulose) (HPC) 101 % of control | dose: 200.0 mg/kg/injection, schedule: Q04DX002 (ip), vehicle: Klucel (hydroxypropylcellulose) (HPC) 108 % of control | dose: 400.0 mg/kg/injection, schedule: Q04DX002 (ip), vehicle: Klucel (hydroxypropylcellulose) (HPC) 97 % of control

CC(C)CC(C=NCC(CCN1CCOCC1)(CC(C)C)c1cccc2ccccc12)(CCN1CCOCC1)c1cccc2ccccc12 (configuration not stated)
inactive: dose: 100.0 mg/kg/injection, schedule: Q01DX009 (ip), vehicle: Klucel (hydroxypropylcellulose) (HPC) 94 % of control | dose: 200.0 mg/kg/injection, schedule: Q01DX009 (ip), vehicle: Klucel (hydroxypropylcellulose) (HPC) 90 % of control | dose: 400.0 mg/kg/injection, schedule: Q01DX009 (ip), vehicle: Klucel (hydroxypropylcellulose) (HPC) 92 % of control

O=P(NNc1ccccc1)(NNc1ccccc1)c1ccccc1
inactive: dose: 100.0 mg/kg/injection, schedule: Q01DX009 (ip), vehicle: carboxymethylcellulose (CMC) 90 % of control | dose: 200.0 mg/kg/injection, schedule: Q01DX009 (ip), vehicle: carboxymethylcellulose (CMC) 88 % of control | dose: 400.0 mg/kg/injection, schedule: Q01DX009 (ip), vehicle: carboxymethylcellulose (CMC) 92 % of control

Cc1noc(N)c1N
inactive: dose: 100.0 mg/kg/injection, schedule: Q01DX009 (ip), vehicle: water 105 % of control | dose: 100.0 mg/kg/injection, schedule: Q04DX003 (ip), vehicle: water 93 % of control | dose: 200.0 mg/kg/injection, schedule: Q01DX009 (ip), vehicle: water 115 % of control | dose: 200.0 mg/kg/injection, schedule: Q04DX003 (ip), vehicle: water 96 % of control | dose: 400.0 mg/kg/injection, schedule: Q01DX009 (ip), vehicle: water 121 % of control | dose: 400.0 mg/kg/injection, schedule: Q04DX003 (ip), vehicle: water 102 % of control

CSc1nc(N)c(N=Nc2ccc(S(=O)(=O)Nc3occ(C)c3C)cc2)c(=O)[nH]1
inactive: [6] 97 % of control | dose: 200.0 mg/kg/injection, schedule: Q01DX001 (ip), vehicle: carboxymethylcellulose (CMC) 92 % of control | dose: 400.0 mg/kg/injection, schedule: Q01DX001 (ip), vehicle: carboxymethylcellulose (CMC) 94 % of control
